In assay [1] the test system is patients suffering from non-ulcerative dyspepsia. In words: Clinical study of pindolol in non-ulcerative dyspepsia (GSRS scores). The class given is in vivo, humans. The note with it: 2.5 mg three times daily. How it is done: The invention is intended for the treatment of mammals, including humans.
Eleven patients suffering from non-ulcerative dyspepsia were recruited to a clinical study and gave informed consent. All were treated with pindolol 2.5 mg three times daily. […] A further patient improved in the second week. Their responses were quantified using a standard rating scale (GSRS scores).

A further assay concerns the target T1, 5HT1a receptor (Homo sapiens, UniProt P08908).
T1 construct: Buspirone (30mg) or, matching placebo was administered orally; from tissue; host or cells: living human subjects (central receptors)
T1 sequence (P08908 1-422): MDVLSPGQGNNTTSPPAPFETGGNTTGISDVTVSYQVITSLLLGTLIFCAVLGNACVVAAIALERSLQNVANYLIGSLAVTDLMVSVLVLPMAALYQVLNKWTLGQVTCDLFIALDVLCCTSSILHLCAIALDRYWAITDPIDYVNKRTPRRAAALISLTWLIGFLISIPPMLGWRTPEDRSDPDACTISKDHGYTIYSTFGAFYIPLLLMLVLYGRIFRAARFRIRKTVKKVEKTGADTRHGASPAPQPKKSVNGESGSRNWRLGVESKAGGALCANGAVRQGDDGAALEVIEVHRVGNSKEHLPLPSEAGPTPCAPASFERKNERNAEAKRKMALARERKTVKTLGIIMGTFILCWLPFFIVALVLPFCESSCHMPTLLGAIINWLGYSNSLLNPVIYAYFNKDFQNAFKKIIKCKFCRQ
In words: Buspirone challenge, prolactin release. It counts as in vivo. The settings on record: buspirone 30 mg orally; for Prolactin AUC (mean±SD): blood 0-180 min. From the text:
Studies indicate that a central 5HT1a receptor hypersensitivity may be involved in the pathophysiology of NUD (13,14). The release of prolactin from the anterior pituitary is under dopamine inhibition and under 5HT stimulation, probably at the level of the hypothalamus (15).
A total of 109 subjects, 50 NUD patients (39 female/11 male) and 59 healthy comparison subjects ([…]) gave fully informed consent to take part in the study, which had Ethics Committee approval. […] Buspirone (30mg) or, matching placebo was administered orally at 0900 h (Time 0). Blood was taken at 0, 30, 60, 90, 120 and 180 min.

The subject of the next assay is gastric emptying. The settings on record: intracerebroventricular injection, animal studies; cited from earlier work.

Regarding `CC(C)NCC(O)COc1cccc2[nH]ccc12` (racemic) [pindolol], the “Mean GSRS Score” value in assay [1] (Week 0 (baseline), average of 11 patients) was 9; in assay [1] (Week 1, average of 11 patients) it was 4.2; in assay [1] (Week 2, average of 11 patients), 3.5; in assay [1] (Week 3, average of 11 patients) it was 2.9. Besides, the “Reduction in average symptom severity” value in assay [1] (in three weeks) was “approximately 68%”. Besides, in assay [1] (within 1 week of commencing treatment), the “Patients with significant improvement in symptoms” value is given as “Seven of the 11”.

In the case of `O=C1CC2(CCCC2)CC(=O)N1CCCCN1CCN(c2ncccn2)CC1` [Buspirone], the entries for the “Prolactin AUC (mean±SD)” value at 5HT1a receptor (NUD patients) and on 5HT1a receptor (healthy subjects) were 46±35 and 24±35, respectively. The “Prolactin levels after challenge” value on 5HT1a receptor (all subjects) was “rose in all subjects”.

For `CCNC(C)Cc1cccc(C(F)(F)F)c1` (stereo not shown) [fenfluramine], the “Effect on gastric emptying” value with gastric emptying was “inhibits gastric emptying”.

These data come from patent US7098232B1, “Treatment and prevention of gastrointestinal disease using antagonists of partial agonists of 5HT1a receptors” (Athpharma Limited, priority 1999, dated 2006).
